Data: patent US9328122B2, “7-substituted Hanfangichin B derivative, and preparation method and use thereof” (HANGZHOU BENSHENG PHARMACEUTICAL CO., LTD., priority 2012, dated 2016)
Values after ≈ are worked out from the molar mass of the structure shown.

Tests used:
[1] = system: SK-OV-3 (ovarian cancer) cells; assay: MTT cell growth inhibition, solid tumor cells; type: cell-based, human; conditions: for IC50 / IC90: Homo sapiens, SK-OV-3, 72 h, MTT; for IC50: read-out: IC50; for IC90: read-out: IC90
Text: (§1) Hep-2 (laryngeal carcinoma), A549 (human lung cancer), CaES-17 (esophageal cancer cell), PC-3 (prostate cancer), CNE (nasopharyngeal carcinoma cell) and SK-OV-3 (ovarian cancer cell), all of which were purchased from China Center For Type Culture Collection; RKO (human colon adenocarcinoma cell), MGC-803 (human gastric cancer cell), MG-63 (osteosarcoma), and U87-MG (malignant glioma cell), all of which were purchased from Fuxiang Bio-tech Co. Ltd., Shanghai, China; PANC-1 (pancreatic cancer), Becap37 (human breast cancer cell), Hela (human cervical cancer cell) and Hep G2 (human liver cancer cell), all of which were donated by Cancer Research Institute of Zhejiang University, China.
(§2) 6000 well-growing human solid tumor cells were obtained and inoculated into wells of a 96-well cell culture plate. The culture medium was DMEM High Glucose cell culture medium containing 10% fetal bovine serum. The plate was placed in a carbon dioxide cell incubator (5% CO2) at 37° C. and incubated for 24 hours. After added with 7-substituted fangchinoline derivatives of different concentration and mixing uniformly, the plate was placed in a carbon dioxide cell incubator (5% CO2) at 37° C. and incubated for 72 hours. Then the viable cell concentration was determined by the MTT method.

[2] = system: PANC-1 (pancreatic cancer) cells; assay: MTT cell growth inhibition, solid tumor cells; type: cell-based, human; conditions: for IC50 / IC90: Homo sapiens, PANC-1, 72 h, MTT; for IC50: read-out: IC50; for IC90: read-out: IC90
Text: as §1, §2

[3] = system: CNE (nasopharyngeal carcinoma) cells; assay: MTT cell growth inhibition, solid tumor cells; type: cell-based, human; conditions: for IC50 / IC90: Homo sapiens, CNE, 72 h, MTT; for IC50: read-out: IC50; for IC90: read-out: IC90
Text: as §1, §2

[4] = system: PC-3 (prostate cancer) cells; assay: MTT cell growth inhibition, solid tumor cells; type: cell-based, human; conditions: for IC50 / IC90: Homo sapiens, PC-3, 72 h, MTT; for IC50: read-out: IC50; for IC90: read-out: IC90
Text: as §1, §2

[5] = system: CaEs-17 (esophageal cancer) cells; assay: MTT cell growth inhibition, solid tumor cells; type: cell-based, human; conditions: for IC50 / IC90: Homo sapiens, CaEs17, CaEs-17, 72 h, MTT; for IC50: read-out: IC50; for IC90: read-out: IC90
Text: as §1, §2

[6] = system: RPMI 8226 (multiple myeloma) cells; assay: MTT cell growth inhibition, multiple myeloma cells; type: cell-based, human; conditions: Homo sapiens, RPMI 8226, 72 h, MTT; for IC50: read-out: IC50; for IC90: read-out: IC90
Description: Myeloma cell lines: RPMI8226 (multiple myeloma), purchased from Fuxiang Bio-tech Co. Ltd., Shanghai, China.
(§3) 6000 well-growing cells were obtained and inoculated into wells of a 96-well cell culture plate. The culture medium was a RPMI-1640 cell culture medium containing 10% fetal bovine serum. After adding the 7-substituted fangchinoline derivatives of different concentrations the next day and mixing uniformly, the plate was placed in a carbon dioxide cell incubator (5% CO2) at 37° C. and incubated for 72 hours. Then the viable cell concentration was determined by the MTT method.

[7] = system: Hep G2 (human liver cancer) cells; assay: MTT cell growth inhibition, solid tumor cells; type: cell-based; conditions: for IC50 / IC90: Homo sapiens, HepG2, Hep G2, 72 h, MTT; for IC50: read-out: IC50; for IC90: read-out: IC90
Text: as §1, §2

[8] = system: MGC-803 (human gastric cancer) cells; assay: MTT cell growth inhibition, solid tumor cells; type: cell-based; conditions: MGC-803, 72 h, MTT; for IC50: read-out: IC50; for IC90: read-out: IC90
Text: as §1, §2

[9] = system: Hela (human cervical cancer) cells; assay: MTT cell growth inhibition, solid tumor cells; type: cell-based; conditions: Homo sapiens, Hela, 72 h, MTT; for IC50: read-out: IC50; for IC90: read-out: IC90
Text: as §1, §2

[10] = system: Becap-37 (human breast cancer) cells; assay: MTT cell growth inhibition, solid tumor cells; type: cell-based; conditions: for IC50 / IC90: Homo sapiens, Becap-37, 72 h, MTT; for IC50: read-out: IC50; for IC90: read-out: IC90
Text: as §1, §2

[11] = system: MG-63 (osteosarcoma) cells; assay: MTT cell growth inhibition, solid tumor cells; type: cell-based; conditions: Homo sapiens, MG-63, 72 h, MTT; for IC50: read-out: IC50; for IC90: read-out: IC90
Text: as §1, §2

[12] = system: RKO (human colon adenocarcinoma) cells; assay: MTT cell growth inhibition, solid tumor cells; type: cell-based; conditions: for IC50 / IC90: Homo sapiens, RKO, 72 h, MTT; for IC50: read-out: IC50; for IC90: read-out: IC90
Text: as §1, §2

[13] = system: A549 (human lung cancer) cells; assay: MTT cell growth inhibition, solid tumor cells; type: cell-based; conditions: for IC50 / IC90: Homo sapiens, A549, 72 h, MTT; for IC50: read-out: IC50; for IC90: read-out: IC90
Text: as §1, §2

[14] = system: U87-MG (malignant glioma) cells; assay: MTT cell growth inhibition, solid tumor cells; type: cell-based; conditions: Homo sapiens, U-87 MG, U87-MG, 72 h, MTT; for IC50: read-out: IC50; for IC90: read-out: IC90
Text: as §1, §2

[15] = system: Hep-2 (laryngeal carcinoma) cells; assay: MTT cell growth inhibition, solid tumor cells; type: cell-based; conditions: Homo sapiens, Hep-2, 72 h, MTT; for IC50: read-out: IC50; for IC90: read-out: IC90
Text: as §1, §2

tumor = assay: Antitumor activity compared with fangchinoline, overall statement; type: cell-based; conditions: tumor type not specified
[16] = system: NB4 (acute promyelocytic leukemia) cells; assay: MTT cell growth inhibition, leukemia cells; type: cell-based; conditions: Homo sapiens, NB4, 72 h, MTT; for IC50: read-out: IC50; for IC90: read-out: IC90
Text: (§4) Leukemia cell lines: leukemia cell lines: K562adr (drug-resistant, chronic myeloid leukemia, CML), NB4 (acute promyelocytic leukemia, AML), Kasumi-1 (acute myeloid leukemia M2 type, AML-M2), Jurkat (acute lymphoblastic leukemia, ALL), all of which were donated by Cancer Research Institute of Zhejiang University, China; and H9 (acute lymphoblastic leukemia, ALL), which was purchased from China Center for Type Culture Collection.
(§5) Reagents: The standard sample of fangchinoline (FAN) was purchased from Ci Yuan Biotechnology Co., Ltd., Shaanxi, China; and the 7-substituted fangchinoline derivatives according to the present invention.
as §3, with “well-growing leukemia” for “well-growing”, “incubating” for “incubated”

[17] = system: K562/ADR (K562adr, drug-resistant chronic myeloid leukemia) cells; assay: MTT cell growth inhibition, leukemia cells; type: cell-based; conditions: Homo sapiens, K562/ADR, 72 h, MTT; for IC50: read-out: IC50; for IC90: read-out: IC90
Text: as §4, §5
as §3, with “well-growing leukemia” for “well-growing”, “incubating” for “incubated”

[18] = relative to fangchinoline, Table 2

COc1ccc2cc1Oc1ccc(cc1)C[C@H]1c3cc(c(OC)cc3CCN1C)Oc1c(OC(=O)c3ccc(N(C)C)cc3)c(OC)cc3c1[C@H](C2)N(C)CC3 [BS-FC-308]
IC50 [1]: 1.31 µg/mL (≈ 1.73 µM) | IC90 [1]: 1.93 µg/mL (≈ 2.55 µM) | IC50 [2]: 2.38 µg/mL (≈ 3.15 µM) | IC90 [2]: 8.53 µg/mL (≈ 11.3 µM) | IC50 [3]: 1.9 µg/mL (≈ 2.51 µM) | IC90 [3]: 3.6 µg/mL (≈ 4.76 µM) | IC50 [4]: 2.4 µg/mL (≈ 3.17 µM) | IC90 [4]: 3.49 µg/mL (≈ 4.62 µM) | IC50 [5]: 0.93 µg/mL (≈ 1.23 µM) | IC90 [5]: 3.92 µg/mL (≈ 5.19 µM) | IC50 [6]: 0.12 µg/mL (≈ 0.159 µM) | IC90 [6]: 0.25 µg/mL (≈ 0.331 µM) | IC50 [7]: 1.12 µg/mL (≈ 1.48 µM) | IC90 [7]: 4.35 µg/mL (≈ 5.75 µM) | IC50 [8]: 0.57 µg/mL (≈ 0.754 µM) | IC90 [8]: 1.99 µg/mL (≈ 2.63 µM) | IC50 [9]: 0.89 µg/mL (≈ 1.18 µM) | IC90 [9]: 1.9 µg/mL (≈ 2.51 µM) | IC50 [10]: 1.03 µg/mL (≈ 1.36 µM) | IC90 [10]: 1.95 µg/mL (≈ 2.58 µM) | IC50 [11]: 1.3 µg/mL (≈ 1.72 µM) | IC90 [11]: 1.8 µg/mL (≈ 2.38 µM) | IC50 [12]: 0.71 µg/mL (≈ 0.939 µM) | IC90 [12]: 1.51 µg/mL (≈ 2 µM) | IC50 [13]: 0.99 µg/mL (≈ 1.31 µM) | IC90 [13]: 3.16 µg/mL (≈ 4.18 µM) | anti-A549 activity increase over fangchinoline [13, 18]: more than 3 fold | IC50 [14]: 1.27 µg/mL (≈ 1.68 µM) | IC90 [14]: 3.75 µg/mL (≈ 4.96 µM) | IC50 [15]: 3.08 µg/mL (≈ 4.07 µM) | IC90 [15]: 6.05 µg/mL (≈ 8 µM) | antitumor activity compared with that of fangchinoline (tumor): significantly superior | IC50 [16]: 0.37 µg/mL (≈ 0.489 µM) | IC90 [16]: 0.98 µg/mL (≈ 1.3 µM) | IC50 [17]: 0.08 µg/mL (≈ 0.106 µM) | IC90 [17]: 0.47 µg/mL (≈ 0.622 µM)

COc1ccc2cc1Oc1ccc(cc1)C[C@H]1c3cc(c(OC)cc3CCN1C)Oc1c(OCC(O)CN3CCCCC3)c(OC)cc3c1[C@H](C2)N(C)CC3 (stereo partly shown) [BS-FC-403]
IC50 [1]: 1.03 µg/mL (≈ 1.37 µM) | IC90 [1]: 3.85 µg/mL (≈ 5.13 µM) | anti-SK-OV-3 activity increase over fangchinoline [1, 18]: ~3 fold | IC50 [2]: 1.03 µg/mL (≈ 1.37 µM) | IC90 [2]: 3.17 µg/mL (≈ 4.23 µM) | anti-PANC-1 activity increase over fangchinoline [2, 18]: ~3 fold | IC50 [3]: 0.87 µg/mL (≈ 1.16 µM) | IC90 [3]: 2.2 µg/mL (≈ 2.93 µM) | anti-CNE activity increase over fangchinoline [3, 18]: ~3 fold | IC50 [4]: 1.49 µg/mL (≈ 1.99 µM) | IC90 [4]: 3.96 µg/mL (≈ 5.28 µM) | anti-PC-3 activity increase over fangchinoline [4, 18]: ~3 fold | IC50 [5]: 0.43 µg/mL (≈ 0.573 µM) | IC90 [5]: 1.99 µg/mL (≈ 2.65 µM) | anti-CaEs-17 activity increase over fangchinoline [5, 18]: ~4 fold | IC50 [6]: < 0.125 µg/mL | IC90 [6]: 0.13 µg/mL (≈ 0.173 µM) | IC50 [7]: 0.55 µg/mL (≈ 0.733 µM) | IC90 [7]: 2.23 µg/mL (≈ 2.97 µM) | anti-Hep G2 activity increase over fangchinoline [7, 18]: ~3 fold | IC50 [8]: 0.4 µg/mL (≈ 0.533 µM) | IC90 [8]: 4.14 µg/mL (≈ 5.52 µM) | IC50 [9]: 0.9 µg/mL (≈ 1.2 µM) | IC90 [9]: 2.96 µg/mL (≈ 3.95 µM) | IC50 [10]: 0.59 µg/mL (≈ 0.787 µM) | IC90 [10]: 2.09 µg/mL (≈ 2.79 µM) | anti-Becap37 activity increase over fangchinoline [10, 18]: ~3 fold | IC50 [11]: 0.6 µg/mL (≈ 0.8 µM) | IC90 [11]: 1.3 µg/mL (≈ 1.73 µM) | IC50 [12]: 0.34 µg/mL (≈ 0.453 µM) | IC90 [12]: 0.79 µg/mL (≈ 1.05 µM) | anti-RKO activity increase over fangchinoline [12, 18]: ~3 fold | IC50 [13]: 1.84 µg/mL (≈ 2.45 µM) | IC90 [13]: 6.34 µg/mL (≈ 8.45 µM) | IC50 [14]: 0.71 µg/mL (≈ 0.947 µM) | IC90 [14]: 1.73 µg/mL (≈ 2.31 µM) | IC50 [15]: 1.76 µg/mL (≈ 2.35 µM) | IC90 [15]: 5.66 µg/mL (≈ 7.55 µM) | antitumor activity compared with that of fangchinoline (tumor): significantly superior | IC50 [16]: 0.3 µg/mL (≈ 0.4 µM) | IC90 [16]: 0.78 µg/mL (≈ 1.04 µM) | IC50 [17]: 0.05 µg/mL (≈ 0.0667 µM) | IC90 [17]: 0.83 µg/mL (≈ 1.11 µM)
